Measurements: patent US20180353445A1, “METHODS AND COMPOSITIONS RELATING TO PROTEASOME INHIBITOR RESISTANCE” (Whitehead Institute for Biomedical Research, priority 2017, published 2018)

Assays:
T47D cells = experiment: Competition co-culture of TurboRFP PSMD2 shRNA and GFP control shRNA T47D cells, FACS/microscopy; type: cell-based, human; details: 5 nM, 48 hours
Protocol: We created two cell lines—one line that expresses red fluorescent protein (turboRFP) and the doxycycline-inducible PSMD2-targeting shRNA and another line that expresses green fluorescent protein (GFP) and a doxycycline-inducible control shRNA (FIG. 6A). First, we induced shRNA expression with doxycycline for 48 hours. After recovery, we mixed shPSMD2-RFP and shControl-GFP cells at different ratios (either 1:1, 1:2, 1:5 or 1:10), adding the cells with reduced PSMD2 as the minority subpopulation. Twenty-four hours after plating, we treated these mixed populations of cells for 48 hours with increasing concentrations of bortezomib (5, 7.5 or 10 nM). We allowed the cells to recover in the absence of bortezomib and then we quantified the red and green cells by FACS analysis (FIG. 6A) and captured representative images by fluorescence microscopy (FIG. 6B),
The experiment described in Example 10 was repeated with minor differences using a panel of different proteasome inhibitors: MLN2238, MLN9708, and oprozomib T47D cells harboring a doxycycline inducible control shRNA (GFP) or a doxycycline-inducible PSMD2 shRNA (TurboRFP) were incubated with doxycycline for 3 days. Cells were collected, counted, and plated at a 1:10 ratio of TurboRFP-expressing PSMD2 shRNA cells/GFP expression control shRNA cells in the absence of Dox. Proteasome inhibitors were added at the specified concentrations and cells were maintained in culture. Cells were allowed to recover in the absence of the proteasome inhibitor and then analyzed by FACS (FIG. 8B, top) or visualized by microscopy (FIG. 8B, bottom). In the absence of proteasome inhibitors, the initial plating ratio of these cells (1:10) was maintained over the duration of the experiment (FIG. 8B). […]
Visualization and FACS analysis of GFP/RFP levels—cells were trypsinized in 100 μL Accumax® solution and further diluted into 100 μl PBSx1. The number of cells with red or areen fluorescent proteins was measured by MACSQuant® VYB according to manufactures protocol. […]

FDX1 [1] = target: T1, FDX1 (Homo sapiens, UniProt P10109); experiment: In vitro Fe-S cluster assembly with reduced FDX1 (absorbance at 456 nm); type: biochemical
T1 construct: made in house
T1 sequence (P10109 62-184): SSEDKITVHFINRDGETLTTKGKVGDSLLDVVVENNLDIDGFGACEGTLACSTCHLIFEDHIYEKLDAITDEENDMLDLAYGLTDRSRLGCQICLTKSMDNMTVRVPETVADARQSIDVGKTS
Excerpt: FIGS. 47A-47C: Inhibition of Fe—S formation by elesclomol and variants (in-vitro). […] Note: “x(number) concentration” means that the indicated compound was present at 5 times the concentration of the enzyme.
(FIG. 53A) provides a schematic describing mitochondrial Fe—S cluster biosynthesis. The mitochondrial ISC (iron-sulfur cluster) core complex contains the scaffold protein ISCU and cysteine desulfurase (ACP-ISD11-NFS1)2. The latter catalyzes the conversion of cysteine to alanine and generates S° for iron sulfur cluster assembly. S° is reduced by FDX1. A [2Fe-2S] cluster is subsequently formed on ISCU. […] In vitro Fe—S cluster assembly was carried out with reduced. FDX1 as the reducing agent in the presence or absence of either 5× (green) or 10× (yellow) elesclomol (both relative to FDX1). Fe—S cluster formation was monitored by following the increase of absorbance at 456 nm. […] The red triangle denotes an NMR peak that became severely broadened. […] The [2Fe-2S] cluster in FDX1 is indicated by spheres.
The in vitro Fe—S cluster assembly was carried out with reduced FDX1 as the reducing agent and detected by following the increase of absorbance at 456 tun following the addition of either of 5× (green) or 10× (yellow, both relative to FDX1) compound-1. […] Fe—S formation was monitored by following the increase of absorbance at 456 nm. […] Cysteine desulfurase activity assay carried out with the indicated concentrations of elesclomol.

FDX1 [2] = target: T1, FDX1; experiment: NMR titration of elesclomol against [U-15N]-FDX1 (2D 1H,15N TROSY-HSQC); type: binding
Protocol: Most of these residues map to the α2, α3 helices and the β5 strand within the FDX1 structure (FIG. 53E).
NMR Spectroscopy—NMR spectra were collected at the National Magnetic Resonance Facility at Madison on a 750 MHz (^1H) Balker with a z-gradient cryogenic probe. The buffer used for NMR samples (HNT buffer) contained 20 mM HEPES at pH 7.6, 150 mM NaCl, and 2 mM TCEP. All sample temperatures were regulated at 25° C. NMRPipe software (Delaglio et al., 1995) was used to process the raw NMR data and NMRFAM-SPARKY (Lee et al., 2015) software was utilized to visualize and analyze the processed NMR data.
To study the interactions of FDX1 with elesclomol, 0.2 mM [U-^15N]-FDX1 in HNT buffer were placed in 5 mm Shigemi NMR tubes, and 2D ^1H,^15N TROSY-HSQC spectra were collected before and after titration of 5 equivalent molar ratio of elesclomol dissolved in HNT buffer.
Chemical shift perturbations (ΔδHN absolute value ppm) were calculated by
where Δ67 H and ΔδN are the chemical shift changes in the ^1H and ^15N dimensions, respectively.

SMILES | shift of surviving population toward PSMD2 shRNA cells (T47D cells) | in vitro Fe-S cluster assembly with reduced FDX1 (FDX1 [1]; 5x or 10x relative to FDX1) | in vitro formation of Fe-S clusters mediated by FDX1 (FDX1 [1]; x5 concentration relative to enzyme) | binding to FDX1 by NMR (FDX1 [2]; 0.2 mM [U-15N]-FDX1, 5 equivalent molar ratio of elesclomol) | chemical shift perturbation (Δδ) of the most affected FDX residues (FDX1 [2]; I58-F59, D61, K66, D68, A69, D72-D76, L84, T104-R106) [ppm]
CC(C)C[C@H](NC(=O)[C@H](Cc1ccccc1)NC(=O)c1cnccn1)B(O)O [bortezomib] | substantially shifted the populations of surviving cells | – | – | – | –
CN(NC(=O)CC(=O)NN(C)C(=S)c1ccccc1)C(=S)c1ccccc1 [elesclomol] | – | inhibits in vitro Fe—S cluster assembly | sufficient to induce an inhibitory effect | directly binds FDX1 | > 0.01
